Source: patent publication US4316011A, “Rhodomycin antibiotics” (Sanraku-Ocean Co., Ltd., priority 1979, dated 1982)
In brackets after ≈: the same amount, converted by molar mass. Like-named read-outs stand apart in the source and are kept apart here.

Columns and labels:
[1] = tested on: L 1210 leukemia; test: Antitumor effect on L 1210 leukemia in mice; assay type: in vivo, mice (CDF1); settings: i.p., once daily for 10 days from 24 hours after inoculation of 1×10^6 L 1210 cells i.p.
Experimental: For example, when CDF1 mice weighing 18 to 22 grams were inoculated with 1×10^6 cells of L 1210 cells intraperitoneally and the compound was administered intraperitoneally once daily for 10 days consecutively 24 hours after inoculation, the survival time of mice was over 200% by T/C(%) at optimum dose as shown in the following table.

[2] = tested on: RNA synthesis in murine leukemic L 1210 cells; test: RNA biosynthesis in L 1210 cells (14C-uridine incorporation); assay type: cell-based; settings: for IC50: Mus musculus, L1210, 15 min with compound then 60 min 14C-uridine, 37° C.; for Inhibition ratio DNA/RNA: ratio of IC50 for DNA synthesis to IC50 for RNA synthesis
Experimental: 50% growth inhibition concentration of the compound over controls was determined. […] The cells were cultured for 15 min. at 37° C. after the compounds according to the present invention at various concentrations were added, and then ^14 C-uridine (0.05 μCi/ml) or ^14 C-thymidine (0.05 μCi/ml) was added and incubated for further 60 min. at 37° C. After stopping the pulse-labeling by addition of 10% trichloroacetic acid (TCA) solution to the reaction mixture, acid-insoluble materials were precipitated, washed three times with 5 to 10% TCA, and dissolved in a small amount of formic acid.

[3] = Acute toxicity in mice, single intravenous injection; settings: mouse, in vivo
[4] = tested on: murine leukemic L 1210 cells; test: Growth inhibition of L 1210 cells in culture; assay type: cell-based; settings: for IC50: Mus musculus; for growth of murine leukemic cells (in words): murine leukemic L 1210 cells in culture
Experimental: (§1) In an example, L 1210 cells were inoculated in RPMI (Rosewell Park Memorial Institute) 1640 medium containing 20% calf serum at the cell density of 5×10^4 cells/ml, and the compound in the present invention was simultaneously added to the medium at the concentration of 0.1 and 0.5 μg/ml and incubated at 37° C. in a CO2 incubator. 50% growth inhibition concentration of the compound over controls was determined. L 1210 cells as described above were also inoculated at 5×10^5 cells in RPMI 1640 medium containing 10% calf serum and incubated at 37° C. for 1 to 2 hours in a CO2 incubator. The cells were cultured for 15 min. at 37° C. after the compounds according to the present invention at various concentrations were added, and then ^14 C-uridine (0.05 μCi/ml) or ^14 C-thymidine (0.05 μCi/ml) was added and incubated for further 60 min. at 37° C. After stopping the pulse-labeling by addition of 10% trichloroacetic acid (TCA) solution to the reaction mixture, acid-insoluble materials were precipitated, washed three times with 5 to 10% TCA, and dissolved in a small amount of formic acid. Then, radioactivity was determined, and inhibitory effects on the DNA and RNA biosynthesis were indicated by the 50% inhibition concentration (IC50) of the incorporation of radioactivity over controls.

[5] = tested on: DNA synthesis in murine leukemic L 1210 cells; test: DNA biosynthesis in L 1210 cells (14C-thymidine incorporation); assay type: cell-based; settings: Mus musculus, L1210, 15 min with compound then 60 min 14C-thymidine, 37° C.
Experimental: as §1

[6] = L1210, L 1210 cells, RPMI 1640, 20% calf serum, 5×10^4 cells/ml, 37° C., read-out: IC50 Growth

Row | SMILES | T/C (survival time) ([1]; opt. dose 20 mg/kg/day) [%] | IC50 [2] [µg/mL] | Inhibition ratio DNA/RNA [2] | LD50 [3] [mg/kg] | IC50 [4, 6] [µg/mL] | IC50 [5] [µg/mL] | T/C (survival time) ([1]; opt. dose 2 mg/kg/day) [%] | growth of murine leukemic cells (in words) [4] | RNA synthesis of L 1210 cells (in words) [2] | IC50 ([4]; L1210, read-out: IC50 Growth) [µg/mL] | T/C (survival time) ([1]; opt. dose 1 mg/kg/day) [%]
1 | CCC1(O)CC(OC2CC(N(C)C)C(OC3CC(O)C(OC4CCC(=O)C(C)O4)C(C)O3)C(C)O2)c2c(cc3c(c2O)C(=O)c2c(O)ccc(O)c2C3=O)C1O (stereo not drawn) [β-Pyrromycin RDC] | 202 | 1.5 (≈ 1.91 µM) | 1.3 | 85.5 | 1 (≈ 1.27 µM) | 2 (≈ 2.55 µM) |  |  |  |  | 
2 | CCC1(O)CCc2c(O)c3c(c(O)c2C1OC1CC(N(C)C)C(OC2CC(O)C(OC4CCC(=O)C(C)O4)C(C)O2)C(C)O1)C(=O)c1cccc(O)c1C3=O (stereo not shown) [γ-Rhodomycin RDC] |  | 0.28 (≈ 0.364 µM) | 3.0 | 39.8 | 0.11 (≈ 0.143 µM) | 0.85 (≈ 1.1 µM) | 209 |  |  |  | 
3 | CCC1(O)CC(OC2CC(N(C)C)C(OC3CC(O)C(OC4CCC(=O)C(C)O4)C(C)O3)C(C)O2)c2c(O)c3c(c(O)c2C1O)C(=O)c1cccc(O)c1C3=O (stereo not drawn) [β-Rhodomycin RDC] |  | 0.15 (≈ 0.191 µM) | 3.8 | 28 | 0.01 (≈ 0.0127 µM) | 0.57 (≈ 0.725 µM) | 306 | suppressed the growth of murine leukemic cells at extremely low concentration |  |  | 
4 | CCC1(O)CC(OC2CC(N(C)C)C(OC3CC(O)C(OC4CCC(=O)C(C)O4)C(C)O3)C(C)O2)c2c(O)c3c(c(O)c2C1C(=O)OC)C(=O)c1cccc(O)c1C3=O (stereo not shown) [ε-Rhodomycin RDC] |  | 0.08 (≈ 0.0966 µM) | 8.8 | 32.5 |  | 0.7 (≈ 0.846 µM) | 240 | suppressed the growth of murine leukemic cells at extremely low concentration | inhibited specifically RNA synthesis of L 1210 cells | 0.01 (≈ 0.0121 µM) | 
5 | CCC1(O)CC(OC2CC(N(C)C)C(OC3CC(O)C(OC4CCC(=O)C(C)O4)C(C)O3)C(C)O2)c2c(O)c3c(c(O)c2C1C(=O)OC)C(=O)c1c(O)ccc(O)c1C3=O (stereo not shown) [ε-Isorhodomycin RDC] |  | 0.11 (≈ 0.13 µM) | 11.1 | 28.2 |  | 1.25 (≈ 1.48 µM) | 235 | suppressed the growth of murine leukemic cells at extremely low concentration | inhibited specifically RNA synthesis of L 1210 cells | 0.007 (≈ 0.0083 µM) | 
6 | COc1cccc2c1C(=O)c1c(O)c3c(c(O)c1C2=O)C[C@@](O)(C(=O)CO)C[C@@H]3O[C@H]1C[C@H](N)[C@H](O)[C@H](C)O1 [Adriamycin, reference compound] |  |  |  | 14.2 |  |  |  |  |  |  | 286
7 | CCC1(O)CCc2c(O)c3c(c(O)c2C1OC1CC(N(C)C)C(OC2CC(O)C(OC4CCC(O)C(C)O4)C(C)O2)C(C)O1)C(=O)c1cccc(O)c1C3=O (stereo not shown) [γ-Rhodomycin RDRs] |  | 0.3 (≈ 0.389 µM) | 2.3 | 40.6 | 0.09 (≈ 0.117 µM) | 0.7 (≈ 0.907 µM) | 203 |  |  |  | 
